Inhibition data for one molecule are collected here from ChEMBL document CHEMBL1221248, “Synthesis and SAR of (piperazin-1-yl-phenyl)-arylsulfonamides: a novel series of atypical antipsychotic agents” (Bioorg Med Chem Lett, 2010).

The test has as its target 5-hydroxytryptamine receptor 2C (Homo sapiens) (UniProt P28335). The experiment in a line: Antagonist activity at human 5HT2C receptor expressed in CHO cells assessed as inhibition of 5-HT-stimulated [35S]GTPgamma binding.

5-hydroxytryptamine receptor 2C (Homo sapiens), sequence (P28335 whole entry, looked up): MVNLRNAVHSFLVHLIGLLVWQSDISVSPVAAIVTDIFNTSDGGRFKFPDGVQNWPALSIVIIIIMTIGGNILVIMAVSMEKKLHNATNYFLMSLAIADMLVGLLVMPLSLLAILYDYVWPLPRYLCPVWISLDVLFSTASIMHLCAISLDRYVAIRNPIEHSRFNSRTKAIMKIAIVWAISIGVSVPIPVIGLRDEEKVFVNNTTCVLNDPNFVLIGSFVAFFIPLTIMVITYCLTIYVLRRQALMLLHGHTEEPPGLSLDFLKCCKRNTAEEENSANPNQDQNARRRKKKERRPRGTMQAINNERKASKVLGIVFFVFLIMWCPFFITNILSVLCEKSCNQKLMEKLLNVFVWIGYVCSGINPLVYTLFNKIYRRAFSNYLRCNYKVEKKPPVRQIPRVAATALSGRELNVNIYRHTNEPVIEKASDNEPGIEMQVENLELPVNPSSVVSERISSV

In the case of `CC(C)N(c1cccc(N2CCN(C)CC2)c1)S(=O)(=O)c1ccc2ccccc2c1`, the inhibition result is “Dose-dependent effect”.
